Laboratory results: patent US8299214B2 (priority 2006, dated 2012)
Where two headings read alike, the source gives them in different places. Residues, ends and D or L forms follow the SMILES beside them. No end group written: not given here. *: point of attachment. Stearoyl = CCCCCCCCCCCCCCCCCC(=O)*

Tests used:
[1] = test system: influenza virus A/Puerto Rico/8/34 strain (H1N1)
[2] = test system: influenza virus A/Aichi/2/68 strain (H3N2)
[3] = test system: hemagglutinin (immobilized H3N2); experiment: Biacore binding of synthetic peptides to H3N2 immobilized on Sensor Chip CM5; set-up: species or system influenza virus type A A/Wuhan/359/95 (H3N2); details: for order of binding strength to hemagglutinin: Biacore; for relative value of resonance (amount of binding) with A-1 taken as 1: peptide concentration 200 μM
[4] = target: binding of hemagglutinin (H3) to GM3; experiment: ELISA inhibition of GM3-hemagglutinin interaction using GM3 cast membrane; set-up: species or system influenza virus
Method: Inhibition of the interaction between GM3 and hemagglutinin (HA) was evaluated by ELISA using the GM3 cast membrane (Kazuhiro Nagata and Hiroshi Handa, “Seibutsu Busshitsu Sogosayo no Real-time Kaiseki Jikkenho—BIACORE wo Chushin Ni (Real-time Analysis Experimental Procedures on Biological Substance Interaction—Focusing on BIOCORE), Springer-Verlag Inc., Tokyo, 1998)”). […] In addition, it has been reported from an evaluation by NMR that the binding constant between hemagglutinin and free sialyl lactose is in the order of mM (e.g. α (2, 3)-sialyllactose K0=3.2 mM). Therefore, the results presented in this Example were largely consistent with the inhibition constant of the peptides reported by Inoue. Moreover, the results presented in this Example are in the same order of magnitude as, or one order smaller than, the inhibition constant of A-1 or the binding constant obtained with sialyl lactose.

[5] = test system: hemagglutinin (HA), ether extract of type A subtype H3 A/Wuhan/359/95 (H3N2); experiment: Phage ELISA, binding of peptide-presenting phages to immobilized hemagglutinin (H3N2); set-up: species or system influenza virus type A A/Wuhan/359/95 (H3N2)
[6] = target: hemagglutinin (HA), ether extract of type A subtype H1 A/PR/8/34 (H1N1) (Influenza A virus, UniProt P03452)
[7] = influenza virus A/Puerto Rico/8/34 strain
[8] = influenza virus A/Aichi/2/68 strain
[9] = read-out: IC50(μM) H1, Table 4, MDCK cells, plaque assay, H1N1
[10] = read-out: IC50(μM) H3, Table 4, MDCK cells, plaque assay, H3N2

hemagglutinin (HA), ether extract of type A subtype H1 A/PR/8/34 (H1N1), sequence (P03452 18-565): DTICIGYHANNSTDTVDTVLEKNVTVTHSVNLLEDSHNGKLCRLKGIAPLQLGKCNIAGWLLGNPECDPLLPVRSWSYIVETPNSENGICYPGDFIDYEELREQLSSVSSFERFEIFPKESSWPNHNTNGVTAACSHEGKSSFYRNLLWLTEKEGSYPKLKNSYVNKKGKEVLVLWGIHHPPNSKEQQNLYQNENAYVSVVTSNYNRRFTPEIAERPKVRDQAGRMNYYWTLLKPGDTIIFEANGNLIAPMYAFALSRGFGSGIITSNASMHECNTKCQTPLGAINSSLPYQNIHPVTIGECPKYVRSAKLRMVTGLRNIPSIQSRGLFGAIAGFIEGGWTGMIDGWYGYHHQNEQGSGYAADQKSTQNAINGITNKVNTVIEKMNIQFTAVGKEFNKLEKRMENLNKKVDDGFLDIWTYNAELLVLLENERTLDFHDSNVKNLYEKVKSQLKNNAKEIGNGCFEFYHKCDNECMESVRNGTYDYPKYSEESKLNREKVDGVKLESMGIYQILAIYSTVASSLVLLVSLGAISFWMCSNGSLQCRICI

Compound	IC50 [1, 7] [µM]	IC50 [2, 8] [µM]	inhibition of H1N1 influenza virus infection (in words) ([1]; MDCK cells, plaque assay)	inhibition of H3N2 influenza virus infection (in words) ([2]; MDCK cells, plaque assay)	also measured
CCCCCCCCCCCCCCCCCC(=O)N[C@H](C(=O)N[C@@H](Cc1c[nH]cn1)C(=O)N1CCC[C@H]1C(=O)N[C@@H](CCCCN)C(=O)N1CCC[C@H]1C(=O)N[C@@H](C)C(=O)N[C@@H](CCC(N)=O)C(=O)N1CCC[C@H]1C(N)=O)C(C)C [C18-s2(8-15), C18-VHPKPAQP] (Stearoyl-VHPKPAQP-NH2)	59	10.5			
CCCCCCCCCCCCCCCCCC(=O)N[C@@H](C)C(=O)N[C@@H](CCCNC(=N)N)C(=O)N[C@@H](CC(C)C)C(=O)N1CCC[C@H]1C(=O)N[C@@H](CCCNC(=N)N)C(=O)N[C@H](C(N)=O)[C@@H](C)O [C18-s2(1-6), C18-ARLPRT] (Stearoyl-ARLPRT-NH2)			more strongly than C18-S2 peptide	as strongly as, or more strongly than, C18-S2 peptide	IC50 [1, 9]: 3.5 µM; IC50 [2, 10]: 5 µM
CCCCCCCCCCCCCCCCCC(=O)N[C@@H](C)C(=O)N[C@@H](CCCNC(=N)N)C(N)=O [C18-s2(1-2), C18-AR] (Stearoyl-Ala-Arg-NH2)			unable to inhibit infection	unable to inhibit infection	IC50 [1, 9]: > 100 µM; IC50 [2, 10]: > 100 µM
ARLSPTMVHPNGAQP [A-1, ARLSPTMVHPNGAQP-NH2, reference compound]					order of binding strength to hemagglutinin [3]: s-2>e-1>A-1>pVIII; IC50 [4]: 1900 µM
CCCCCCCCCCCCCCCCCC(=O)N[C@@H](C)C(=O)N[C@@H](CCCNC(=N)N)C(=O)N[C@@H](CC(C)C)C(=O)N1CCC[C@H]1C(=O)N[C@@H](CCCNC(=N)N)C(=O)N[C@H](C(=O)N[C@@H](CCSC)C(N)=O)[C@@H](C)O [C18-s2(1-7), C18-ARLPRTM] (Stearoyl-ARLPRTM-NH2)			more strongly than C18-S2 peptide	as strongly as, or more strongly than, C18-S2 peptide	IC50 [1, 9]: 7.1 µM; IC50 [2, 10]: 9.1 µM
AEGDDPAKAAFDSLQ-NH2 [pVIII, reference compound]					order of binding strength to hemagglutinin [3]: s-2>e-1>A-1>pVIII
CCCCCCCCCCCCCCCCCC(=O)N[C@@H](C)C(=O)N[C@@H](CCCNC(=N)N)C(=O)N[C@@H](CC(C)C)C(=O)N[C@@H](CO)C(=O)N1CCC[C@H]1C(=O)N[C@H](C(=O)N[C@@H](CCSC)C(=O)N[C@H](C(=O)N[C@@H](Cc1c[nH]cn1)C(=O)N1CCC[C@H]1C(=O)N[C@@H](CC(N)=O)C(=O)NCC(=O)N[C@@H](C)C(=O)N[C@@H](CCC(N)=O)C(=O)N1CCC[C@H]1C(N)=O)C(C)C)[C@@H](C)O [C18-A1, C18-ARLSPTMVHPNGAQP, reference compound] (Stearoyl-ARLSPTMVHPNGAQP-NH2)	195	365			
CCCCCCCCCCCCCCCCCC(=O)N[C@@H](C)C(=O)N[C@@H](CCCNC(=N)N)C(=O)N[C@@H](CC(C)C)C(N)=O [C18-s2(1-3), C18-ARL]	> 100	> 100	unable to inhibit infection	unable to inhibit infection	
CCCCCCCCCCCCCCCCCC(=O)N[C@@H](CCCNC(=N)N)C(=O)N[C@@H](CC(C)C)C(=O)N1CCC[C@H]1C(=O)N[C@@H](CCCNC(=N)N)C(=O)N[C@H](C(=O)N[C@@H](CCSC)C(=O)N[C@H](C(N)=O)C(C)C)[C@@H](C)O [C18-s2(2-8), C18-RLPRTMV] (Stearoyl-RLPRTMV-NH2)			as strongly as, or more strongly than, C18-S2 peptide		IC50 [1, 9]: 9.2 µM; IC50 [2, 10]: > 100 µM
CCCCCCCCCCCCCCCCCC(=O)N[C@@H](C)C(=O)N[C@@H](CCCNC(=N)N)C(=O)N[C@@H](CC(C)C)C(=O)N1CCC[C@H]1C(=O)N[C@@H](CCCNC(=N)N)C(=O)N[C@H](C(=O)N[C@@H](CCSC)C(=O)N[C@H](C(=O)N[C@@H](Cc1c[nH]cn1)C(=O)N1CCC[C@H]1C(=O)N[C@@H](CCCCN)C(=O)N1CCC[C@H]1C(=O)N[C@@H](C)C(=O)N[C@@H](CCC(N)=O)C(=O)N1CCC[C@H]1C(N)=O)C(C)C)[C@@H](C)O [C18-s2, C18-ARLPRTMVHPKPAQP] (Stearoyl-ARLPRTMVHPKPAQP-NH2)	10	8.2			
CCCCCCCCCCCCCCCCCC(=O)N[C@@H](CCCNC(=N)N)C(=O)N[C@H](C(=O)N[C@@H](CCSC)C(=O)N[C@H](C(=O)N[C@@H](Cc1c[nH]cn1)C(=O)N1CCC[C@H]1C(=O)N[C@@H](CCCCN)C(N)=O)C(C)C)[C@@H](C)O [C18-s2(5-11), C18-RTMVHPK] (Stearoyl-RTMVHPK-NH2)	11	> 100			
CCCCCCCCCCCCCCCCCC(=O)N[C@@H](CCCNC(=N)N)C(=O)N1CCC[C@H]1C(=O)N[C@@H](CC(C)C)C(=O)N[C@@H](CCCNC(=N)N)C(=O)N[C@@H](C)C(N)=O [C18-s2(r1-5), C18-RPLRA] (Stearoyl-RPLRA-NH2)	0.55	0.94	more strongly than C18-s2 (r1-8)	more strongly than C18-s2 (r1-8)	
CCCCCCCCCCCCCCCCCC(=O)N[C@@H](C)C(=O)N[C@@H](CCCNC(=N)N)C(=O)N[C@@H](CC(C)C)C(=O)N1CCC[C@H]1C(=O)N[C@@H](CCCNC(=N)N)C(=O)N[C@H](C(=O)N[C@@H](CCSC)C(=O)N[C@H](C(N)=O)C(C)C)[C@@H](C)O [C18-s2(1-8), C18-ARLPRTMV] (Stearoyl-ARLPRTMV-NH2)			more strongly than C18-S2 peptide	as strongly as, or more strongly than, C18-S2 peptide	IC50 [1, 9]: 2.4 µM; IC50 [2, 10]: 1.4 µM
CCCCCCCCCCCCCCCCCC(=O)N[C@@H](C)C(=O)N[C@@H](CCCNC(=N)N)C(=O)N[C@@H](CC(C)C)C(=O)N[C@@H](C)C(N)=O [C18-s2(1-4)P4A, C18-ARLA] (Stearoyl-ARLA-NH2)	> 100	> 100			
CCCCCCCCCCCCCCCCCC(=O)N[C@@H](C)C(=O)N[C@@H](CCCNC(=N)N)C(=O)N[C@@H](CC(C)C)C(=O)N1CCC[C@H]1C(N)=O [C18-s2(1-4), C18-ARLP] (Stearoyl-ARLP-NH2)	0.9	21	more strongly than C18-S2 peptide	as strongly as, or more strongly than, C18-S2 peptide	
ARLPPTMVRPNGPQP-NH2 [e-1]					order of binding strength to hemagglutinin [3]: s-2>e-1>A-1>pVIII; relative value of resonance (amount of binding) with A-1 taken as 1 [3]: 1.2 fold
ARLPRTMVHPKPAQP-NH2 [s-2]					binding activity to hemagglutinin relative to A-1 (A-1 taken as 1) [5]: about 3 fold; order of binding strength to hemagglutinin [3]: s-2>e-1>A-1>pVIII; relative value of resonance (amount of binding) with A-1 taken as 1 [3]: 2.1 fold; binding activity to hemagglutinin relative to A-1 (A-1 taken as 1) [6]: about 3 fold
CCCCCCCCCCCCCCCCCC(=O)N1CCC[C@H]1C(=O)N[C@@H](CCCNC(=N)N)C(=O)N[C@H](C(=O)N[C@@H](CCSC)C(=O)N[C@H](C(N)=O)C(C)C)[C@@H](C)O [C18-s2(4-8), C18-PRTMV] (Stearoyl-PRTMV-NH2)	> 100				
CCCCCCCCCCCCCCCCCC(=O)N1CCC[C@H]1C(=O)N[C@@H](CC(C)C)C(=O)N[C@@H](CCCNC(=N)N)C(=O)N[C@@H](C)C(N)=O [C18-s2(r1-4), C18-PLRA] (Stearoyl-PLRA-NH2)	0.41	14	more strongly than C18-s2 (r1-8)	more strongly than C18-s2 (r1-8)	
CCCCCCCCCCCCCCCCCC(=O)N[C@@H](CC(C)C)C(=O)N1CCC[C@H]1C(=O)N[C@@H](CCCNC(=N)N)C(=O)N[C@H](C(=O)N[C@@H](CCSC)C(=O)N[C@H](C(N)=O)C(C)C)[C@@H](C)O [C18-s2(3-8), C18-LPRTMV] (Stearoyl-LPRTMV-NH2)	> 100				
CCCCCCCCCCCCCCCCCC(=O)N[C@@H](C)C(=O)N[C@@H](CCCNC(=N)N)C(=O)N[C@@H](CC(C)C)C(=O)N1CCC[C@H]1C(=O)N[C@@H](CCCNC(=N)N)C(N)=O [C18-s2(1-5), C18-ARLPR] (Stearoyl-ARLPR-NH2)			more strongly than C18-S2 peptide	as strongly as, or more strongly than, C18-S2 peptide	IC50 [1, 9]: 3.1 µM; IC50 ([1]; read-out: IC50(μM) H1, Table 5, MDCK cells, plaque assay, H1N1): 0.35 µM; IC50 [2, 10]: 3 µM; IC50 ([2]; read-out: IC50(μM) H3, Table 5, MDCK cells, plaque assay, H3N2): 1.55 µM
CCCCCCCCCCCCCCCCCC(=O)N[C@H](C(=O)N[C@@H](CCSC)C(=O)N[C@H](C(=O)N[C@@H](CCCNC(=N)N)C(=O)N1CCC[C@H]1C(=O)N[C@@H](CC(C)C)C(=O)N[C@@H](CCCNC(=N)N)C(=O)N[C@@H](C)C(N)=O)[C@@H](C)O)C(C)C [C18-s2(r1-8), C18-VMTRPLRA] (Stearoyl-VMTRPLRA-NH2)	93	226			
